Each block holds one compound with its values, some of them ahead of it.
Tests used:
[1] = system: Mus musculus; assay: Receptor occupancy of Btk in CIA mouse model at 60 mg/kg/day; type: functional
[2] = biological target: T1, Dual specificity mitogen-activated protein kinase kinase 4 (Homo sapiens, UniProt P45985); assay: Inhibition of MKK4
T1 sequence (P45985 whole entry): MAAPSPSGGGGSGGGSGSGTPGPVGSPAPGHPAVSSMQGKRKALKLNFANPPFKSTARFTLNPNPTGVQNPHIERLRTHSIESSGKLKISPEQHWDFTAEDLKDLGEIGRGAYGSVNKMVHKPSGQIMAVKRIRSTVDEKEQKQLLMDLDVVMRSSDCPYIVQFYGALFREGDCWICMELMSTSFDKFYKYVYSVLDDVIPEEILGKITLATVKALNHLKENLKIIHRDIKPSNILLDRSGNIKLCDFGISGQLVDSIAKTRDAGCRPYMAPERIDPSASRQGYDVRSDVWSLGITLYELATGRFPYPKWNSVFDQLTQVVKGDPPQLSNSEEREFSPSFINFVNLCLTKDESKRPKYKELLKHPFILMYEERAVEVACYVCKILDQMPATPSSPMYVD

[3] = biological target: T2, Dual specificity mitogen-activated protein kinase kinase 7 (Homo sapiens, UniProt O14733); assay: Inhibition of MEK7
T2 sequence (O14733 whole entry): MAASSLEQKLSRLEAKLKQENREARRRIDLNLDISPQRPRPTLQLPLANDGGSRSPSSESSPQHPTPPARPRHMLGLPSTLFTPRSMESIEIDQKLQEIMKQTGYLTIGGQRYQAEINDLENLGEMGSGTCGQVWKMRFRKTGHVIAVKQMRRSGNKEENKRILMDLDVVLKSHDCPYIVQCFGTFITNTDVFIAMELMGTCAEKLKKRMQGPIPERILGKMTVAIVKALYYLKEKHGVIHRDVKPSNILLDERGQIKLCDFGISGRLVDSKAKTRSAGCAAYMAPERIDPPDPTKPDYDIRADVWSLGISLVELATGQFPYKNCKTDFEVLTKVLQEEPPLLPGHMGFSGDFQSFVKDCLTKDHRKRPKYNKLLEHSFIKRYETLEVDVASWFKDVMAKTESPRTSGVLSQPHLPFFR

[4] = biological target: Dual specificity mitogen-activated protein kinase kinase 1 (Homo sapiens, UniProt Q02750); assay: Inhibition of MEK1
Chain of Dual specificity mitogen-activated protein kinase kinase 1 (Q02750 whole entry): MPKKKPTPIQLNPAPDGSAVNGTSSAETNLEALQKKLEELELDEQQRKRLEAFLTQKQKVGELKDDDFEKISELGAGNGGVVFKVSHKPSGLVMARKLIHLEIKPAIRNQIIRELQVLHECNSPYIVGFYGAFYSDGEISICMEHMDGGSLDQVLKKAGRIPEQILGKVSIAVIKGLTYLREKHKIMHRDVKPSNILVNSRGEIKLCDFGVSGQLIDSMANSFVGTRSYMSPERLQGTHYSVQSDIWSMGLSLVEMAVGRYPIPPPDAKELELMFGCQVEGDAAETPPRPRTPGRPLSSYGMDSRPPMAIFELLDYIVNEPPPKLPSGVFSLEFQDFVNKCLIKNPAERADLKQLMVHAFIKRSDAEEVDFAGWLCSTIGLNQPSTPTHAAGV

[5] = biological target: Mitogen-activated protein kinase 1 (Homo sapiens, UniProt P28482); assay: Inhibition of Erk2
Chain of Mitogen-activated protein kinase 1 (P28482 whole entry): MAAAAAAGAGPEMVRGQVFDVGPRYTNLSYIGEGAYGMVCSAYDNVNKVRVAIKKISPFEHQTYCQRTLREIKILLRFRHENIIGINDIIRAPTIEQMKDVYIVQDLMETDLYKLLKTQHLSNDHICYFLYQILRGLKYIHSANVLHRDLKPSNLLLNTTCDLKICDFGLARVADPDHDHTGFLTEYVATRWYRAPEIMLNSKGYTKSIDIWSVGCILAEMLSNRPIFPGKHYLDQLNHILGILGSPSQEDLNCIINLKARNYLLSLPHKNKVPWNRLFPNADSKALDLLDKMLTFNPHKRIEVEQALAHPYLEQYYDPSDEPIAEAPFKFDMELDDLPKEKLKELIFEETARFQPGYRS

[6] = biological target: RAC-alpha serine/threonine-protein kinase (Homo sapiens, UniProt P31749); assay: Inhibition of human AKT1 using biotinylated GSKalpha peptide (SGRARTSSFA) as a substrate after 1 hr
Chain of RAC-alpha serine/threonine-protein kinase (P31749 whole entry): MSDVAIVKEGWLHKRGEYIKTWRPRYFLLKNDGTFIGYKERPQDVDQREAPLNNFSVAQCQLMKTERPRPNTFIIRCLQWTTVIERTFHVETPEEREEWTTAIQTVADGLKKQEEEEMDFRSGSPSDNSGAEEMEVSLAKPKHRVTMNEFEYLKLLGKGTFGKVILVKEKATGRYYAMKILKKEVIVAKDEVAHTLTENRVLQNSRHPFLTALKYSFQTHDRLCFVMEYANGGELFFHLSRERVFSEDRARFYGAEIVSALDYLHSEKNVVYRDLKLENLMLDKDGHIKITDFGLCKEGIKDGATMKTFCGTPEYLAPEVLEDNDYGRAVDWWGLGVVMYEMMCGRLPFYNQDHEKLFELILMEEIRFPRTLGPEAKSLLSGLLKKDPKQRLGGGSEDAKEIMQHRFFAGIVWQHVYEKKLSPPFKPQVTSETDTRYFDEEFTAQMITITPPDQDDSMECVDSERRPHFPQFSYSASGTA

[7] = biological target: Mitogen-activated protein kinase kinase kinase 1 (Homo sapiens, UniProt Q13233); assay: Inhibition of MEKK1
Chain of Mitogen-activated protein kinase kinase kinase 1 (Q13233 whole entry): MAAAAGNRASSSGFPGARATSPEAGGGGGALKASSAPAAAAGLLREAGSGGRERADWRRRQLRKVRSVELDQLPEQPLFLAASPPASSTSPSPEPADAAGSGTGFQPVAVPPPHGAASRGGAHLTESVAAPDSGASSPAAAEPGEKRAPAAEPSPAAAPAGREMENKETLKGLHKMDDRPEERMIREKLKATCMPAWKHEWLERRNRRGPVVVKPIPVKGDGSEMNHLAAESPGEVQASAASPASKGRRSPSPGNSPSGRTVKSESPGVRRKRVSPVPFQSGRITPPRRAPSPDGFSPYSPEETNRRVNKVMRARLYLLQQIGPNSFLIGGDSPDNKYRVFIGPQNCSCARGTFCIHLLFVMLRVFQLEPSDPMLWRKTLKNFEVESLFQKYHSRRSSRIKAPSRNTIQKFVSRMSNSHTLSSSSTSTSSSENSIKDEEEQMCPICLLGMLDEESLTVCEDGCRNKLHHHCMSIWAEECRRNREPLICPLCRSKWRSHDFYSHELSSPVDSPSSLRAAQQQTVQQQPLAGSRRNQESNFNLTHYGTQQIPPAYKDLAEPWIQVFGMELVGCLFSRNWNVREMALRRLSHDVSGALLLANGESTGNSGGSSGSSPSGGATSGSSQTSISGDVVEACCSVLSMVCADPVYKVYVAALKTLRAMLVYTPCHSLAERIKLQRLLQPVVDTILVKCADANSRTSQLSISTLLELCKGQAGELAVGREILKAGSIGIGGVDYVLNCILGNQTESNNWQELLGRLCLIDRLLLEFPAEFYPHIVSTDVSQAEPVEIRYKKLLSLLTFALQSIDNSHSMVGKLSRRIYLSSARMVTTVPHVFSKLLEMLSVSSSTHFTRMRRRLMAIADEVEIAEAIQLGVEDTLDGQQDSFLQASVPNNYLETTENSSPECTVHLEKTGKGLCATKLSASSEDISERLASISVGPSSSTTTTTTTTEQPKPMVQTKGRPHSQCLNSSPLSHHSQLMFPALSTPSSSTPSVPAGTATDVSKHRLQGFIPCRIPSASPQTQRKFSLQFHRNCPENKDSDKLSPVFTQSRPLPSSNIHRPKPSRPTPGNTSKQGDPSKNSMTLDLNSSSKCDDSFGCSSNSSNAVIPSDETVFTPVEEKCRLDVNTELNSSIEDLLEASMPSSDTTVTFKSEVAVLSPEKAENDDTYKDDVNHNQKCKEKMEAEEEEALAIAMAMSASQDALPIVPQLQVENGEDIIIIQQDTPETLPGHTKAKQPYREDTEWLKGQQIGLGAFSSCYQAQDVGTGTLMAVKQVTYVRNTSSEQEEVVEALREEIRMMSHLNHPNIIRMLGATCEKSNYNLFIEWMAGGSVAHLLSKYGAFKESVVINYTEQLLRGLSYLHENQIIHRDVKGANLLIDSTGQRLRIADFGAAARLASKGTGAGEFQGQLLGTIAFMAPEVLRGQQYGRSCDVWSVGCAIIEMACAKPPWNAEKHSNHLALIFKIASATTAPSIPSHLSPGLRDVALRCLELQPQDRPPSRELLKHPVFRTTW

[8] = biological target: T3, Proto-oncogene tyrosine-protein kinase Src (Gallus gallus, UniProt P00523); assay: Inhibition of chicken c-Src
[9] = biological target: Proto-oncogene tyrosine-protein kinase Src (Gallus gallus, UniProt P00523, T338G); assay: Inhibition of chicken c-Src T338G mutant
[10] = biological target: T3, Proto-oncogene tyrosine-protein kinase Src; assay: Inhibition of chicken c-Src using IYGEFKKK peptide as a substrate and [32P]ATP by […]

SMILES: C=CC(=O)Nc1cccc(Nc2nc(Nc3ccc(Oc4ccnc(C(=O)NC)c4)cc3)ncc2F)c1
- Occ [1]: 70%

SMILES: COc1cc(O)c2c(c1)/C=C/C[C@H](O)[C@H](O)C(=O)/C=C\C[C@H](C)OC2=O
- IC50 [2]: > 3000 nM
- IC50 [3]: 300 nM
- IC50 [4]: 6 nM
- IC50 [5]: 80 nM

- IC50 [6]: 313 nM
SMILES: CCC[C@H]1O[C@@H]2CC(=O)O[C@@H]2C2=C1C(=O)c1c(O)cccc1C2=O [FRENOLICIN B]

SMILES: CCNc1cc(O)c2c(c1)/C=C/C[C@@H](O)[C@H](O)C(=O)/C=C\[C@H](C)[C@H](C)OC2=O
- IC50 [4]: 5.2 nM
- IC50 [7]: 31 nM

- IC50 [8]: > 27000 nM
- IC50 [9]: 1 nM
SMILES: CN(C)C/C=C/C(=O)Nc1ccc2ncnc(Nc3cccc(Br)c3)c2c1

- IC50 [8]: > 27000 nM
- IC50 [9]: 1 nM
SMILES: CC#CC(=O)Nc1ccc2ncnc(Nc3cccc(Br)c3)c2c1

- IC50 [10]: > 5000 nM
SMILES: C=CS(=O)(=O)Nc1cccc(Cc2nn(C(C)C)c3ncnc(N)c23)c1

- IC50 [8]: > 27000 nM
- IC50 [9]: 1 nM
SMILES: O=C(Nc1ccc2ncnc(Nc3cccc(Br)c3)c2c1)[C@@H]1O[C@H]1CN1CCCCC1

Reference: ChEMBL document CHEMBL2216750, “Irreversible protein kinase inhibitors: balancing the benefits and risks” (J Med Chem, 2012)
